We go through 79 molecules from the RepoRT retention time repository.

Each structure is given as a SMILES string.

A short description of the data set: HILIC, Waters ACQUITY UPLC BEH Amide, 100 × 2.1 mm, 1.7 µm; A: water + 0.125% formic acid + 10 mM ammonium formate; B: 5% water + 95% acetonitrile + 0.125% formic acid + 10 mM ammonium formate; gradient (min/%B) 0/100 2/100 7.7/70 9.5/40 10.25/30 12.75/100 17/100. As to conditions: stereoisomer not certain.
In the case of `CC(NC(CCc1ccccc1)C(=O)O)C(=O)N1CCCC1C(=O)O` (centres undefined) [Enalaprilat], the LC retention time was determined as 7.07 min.

Consider `CCN1CCN(c2cc3c(cc2F)c(=O)c(C(=O)O)cn3C2CC2)CC1` [Enrofloxacin], for which the LC retention time came to 3.31 min.

For `Oc1cc(O)c2c(c1)OC(c1cc(O)c(O)c(O)c1)C(O)C2` (centres undefined) [Epigallocatechin], the LC retention time amounted to 10.2 min.

With `Oc1ccc(C2COc3cc(O)ccc3C2)cc1` (centres undefined) [Equol], the LC retention time came out at 1.19 min.

Regarding `CC(C)C(C)C=CC(C)C1CCC2C3=CC=C4CC(O)CCC4(C)C3CCC21C` (centres undefined) [Ergosterol], the LC retention time stood at 1.43 min.

Turning to `C[N+](C)(C)C(Cc1c[nH]c(=S)[nH]1)C(=O)[O-]` (centres undefined) [Ergothioneine], the LC retention time turned out to be 7.74 min.

In the case of `CCCCCCCCC=CCCCCCCCCCCCC(N)=O` [Erucamide], the LC retention time came to 1.06 min.

Take `COC(=O)CCc1ccc(OCC(O)CNC(C)C)cc1` (centres undefined) [Esmolol]: the LC retention time worked out at 3.13 min.

Take `NCCO` [Ethanolamine]: the LC retention time is 7.15 min.

In the case of `CCCC(=O)OCC` [Ethylbutanoate], the LC retention time amounted to 4.88 min.

With `C#CC1(O)CCC2C3CCc4cc(O)ccc4C3CCC21C` (centres undefined) [Ethynylestradiol], the LC retention time was 0.99 min.

Regarding `CCOC(=O)c1cncn1C(C)c1ccccc1` (centres undefined) [Etomidate], the LC retention time worked out at 0.98 min.

Regarding `COc1cc(C2c3cc4c(cc3C(OC3OC5COC(C)OC5C(O)C3O)C3COC(=O)C23)OCO4)cc(OC)c1O` (centres undefined) [Etoposide], the LC retention time was found to be 1.3 min.

For the molecule `C=C1CC2C(CCC3(C)C(=O)CCC23)C2(C)C=CC(=O)C=C12` (centres undefined) [Exemestane], the LC retention time turned out to be 0.98 min.

Consider `O=C1C(CCC(O)c2ccc(F)cc2)C(c2ccc(O)cc2)N1c1ccc(F)cc1` (centres undefined) [Ezetimibe], for which the LC retention time was determined as 1.03 min.

On to `CC(=O)OCC(CCn1cnc2cnc(N)nc21)COC(C)=O` [Famciclovir], for which the LC retention time came out at 1.38 min.

Regarding `NC(N)=Nc1nc(CSCCC(N)=NS(N)(=O)=O)cs1` [Famotidine], the LC retention time was found to be 5.59 min.

As for `NC(=O)OCC(COC(N)=O)c1ccccc1` [Felbamate], the LC retention time is 1.2 min.

For `CCNC(C)Cc1cccc(C(F)(F)F)c1` (centres undefined) [Fenfluramine], the LC retention time was 2.33 min.

`Oc1ccc(C2CNCCc3c2cc(O)c(O)c3Cl)cc1` (centres undefined) [Fenoldopam]: the LC retention time was 5.68 min.

As to `CCOC(=O)C(C)Oc1ccc(Oc2nc3ccc(Cl)cc3o2)cc1` (centres undefined) [Fenoxaprop-P-ethyl], the LC retention time stood at 1.01 min.

As to `COc1cc(/C=C/C(=O)O)ccc1O` [Ferulic acid], the LC retention time was 1.36 min.

For `CC(C)(C)NC(=O)C1CCC2C3CCC4NC(=O)C=CC4(C)C3CCC12C` (centres undefined) [Finasteride], the LC retention time is 1.17 min.

For `COC(=O)Nc1nc2ccc(C(=O)c3ccc(F)cc3)cc2[nH]1` [Flubendazole], the LC retention time came out at 1.16 min.

On to `CCOC(=O)c1ncn2c1CN(C)C(=O)c1cc(F)ccc1-2` [Flumazenil], for which the LC retention time was 1.08 min.

Consider `CN1C(=O)CN=C(c2ccccc2F)c2cc([N+](=O)[O-])ccc21` [Flunitrazepam], for which the LC retention time was 1.05 min.

Take `c1ccc2c(c1)Cc1ccccc1-2` [Fluorene]: the LC retention time is 6.66 min.

Take `CN1CCN(C2=Nc3cc(F)ccc3Cc3ccccc32)CC1` [Fluperlapine]: the LC retention time is 2.3 min.

Regarding `OCCN1CCN(CCCN2c3ccccc3Sc3ccc(C(F)(F)F)cc32)CC1` [Fluphenazine], the LC retention time was determined as 2.74 min.

As for `CCN(CC)CCN1C(=O)CN=C(c2ccccc2F)c2cc(Cl)ccc21` [Flurazepam], the LC retention time was 2.41 min.

Consider `COCCCCC(=NOCCN)c1ccc(C(F)(F)F)cc1` [Fluvoxamine], for which the LC retention time worked out at 2.93 min.

`Nc1nc2c(c(=O)[nH]1)N(C=O)C(CNc1ccc(C(=O)NC(CCC(=O)O)C(=O)O)cc1)CN2` (centres undefined) [Folinic acid]: the LC retention time was 7.92 min.

For the molecule `COc1ccc(-c2coc3cc(O)ccc3c2=O)cc1` [Formononetine], the LC retention time is 1.18 min.

Consider `COc1ccc(CC(C)NCC(O)c2ccc(O)c(NC=O)c2)cc1` (centres undefined) [Formoterol], for which the LC retention time amounted to 5.18 min.

`CC(=O)OC1CC(C)(C)C(=C=CC(C)=CC=CC(C)=CC=CC=C(C)C=CC=C(C)C(=O)CC23OC2(C)CC(O)CC3(C)C)C(C)(O)C1` (centres undefined) [Fucoxanthin]: the LC retention time was determined as 1.07 min.

Take `CCOC(=O)c1ccc(OC(=O)CCCCCN=C(N)N)cc1` [Gabexate]: the LC retention time is 3.45 min.

For `NC1C(O)OC(CO)C(O)C1O` (centres undefined) [Galactosamine], the LC retention time came to 8.44 min.

Regarding `COc1ccc2c3c1OC1CC(O)C=CC31CCN(C)C2` (centres undefined) [Galanthamine], the LC retention time worked out at 4.62 min.

`COC(=O)C1=COC(OC2OC(CO)C(O)C(O)C2O)C2C(CO)=CCC12` (centres undefined) [Geniposide]: the LC retention time came to 4.53 min.

With `O=C(O)c1cc(O)ccc1O` [Gentisinic acid], the LC retention time worked out at 3.18 min.

On to `CC(C)=CCCC(C)=CC(=O)O` [Geranic acid], for which the LC retention time worked out at 1.3 min.

As for `CCC1=C(C)CN(C(=O)NCCc2ccc(S(=O)(=O)NC(=O)NC3CCC(C)CC3)cc2)C1=O` (centres undefined) [Glimepiride], the LC retention time is 1.05 min.

As for `NC(N)=NCCCC(NC(=O)C(N)CCC(=O)O)C(=O)O` (centres undefined) [Glu-Arg], the LC retention time was found to be 9.9 min.

`NC(=O)CCC(NC(=O)C(N)CCC(=O)O)C(=O)O` (centres undefined) [Glu-Gln]: the LC retention time was 9.6 min.

On to `NCCCCC(NC(=O)C(N)CCC(=O)O)C(=O)O` (centres undefined) [Glu-Lys], for which the LC retention time came out at 9.9 min.

With `NC(CCC(=O)O)C(=O)NC(Cc1ccccc1)C(=O)O` (centres undefined) [Glu-Phe], the LC retention time was found to be 8.2 min.

In the case of `CC(O)C(NC(=O)C(N)CCC(=O)O)C(=O)O` (centres undefined) [Glu-Thr], the LC retention time amounted to 9.44 min.

`CC(C)C(NC(=O)C(N)CCC(=O)O)C(=O)NC(Cc1ccccc1)C(=O)O` (stereo not drawn) [Glu-Val-Phe]: the LC retention time came out at 7.66 min.

In the case of `O=C1OC(CO)C(O)C(O)C1O` (centres undefined) [Gluconolactone], the LC retention time is 8.15 min.

As for `CS(=O)CCCCC(=NOS(=O)(=O)O)SC1OC(CO)C(O)C(O)C1O` (centres undefined) [Glucoraphanin], the LC retention time was 7.37 min.

In the case of `NC1C(O)OC(COP(=O)(O)O)C(O)C1O` (centres undefined) [Glucosamine-6-phosphate], the LC retention time was 10.1 min.

On to `O=P(O)(O)OC1OC(CO)C(O)C(O)C1O` (centres undefined) [Glucose-1-phosphate], for which the LC retention time came out at 9.61 min.

In the case of `O=P(O)(O)OCC1OC(O)C(O)C(O)C1O` (centres undefined) [Glucose-6-phosphate], the LC retention time amounted to 9.86 min.

As for `OCC1OC(O)C(O)C(O)C1O` (centres undefined) [Glucose], the LC retention time was found to be 1.84 min.

With `NC(CCC(=O)O)C(=O)O` (centres undefined) [Glutamic acid], the LC retention time turned out to be 8.85 min.

For the molecule `NC(CCC(=O)NC(CSSCC(NC(=O)CCC(N)C(=O)O)C(=O)NCC(=O)O)C(=O)NCC(=O)O)C(=O)O` (centres undefined) [Glutathione (oxidized)], the LC retention time was determined as 10.2 min.

`NC(CCC(=O)NC(CS)C(=O)NCC(=O)O)C(=O)O` (centres undefined) [Glutathione (reduced)]: the LC retention time was found to be 9.07 min.

For the molecule `NCC(=O)NCC(=O)NCC(=O)O` [Gly-Gly-Gly], the LC retention time was found to be 9.18 min.

Turning to `CCC(C)C(NC(=O)CN)C(=O)O` (centres undefined) [Gly-Ile], the LC retention time is 7.67 min.

Regarding `[NH3+]CC(=O)N1CCCC1C(=O)[O-]` (centres undefined) [Gly-Pro], the LC retention time was determined as 8.62 min.

In the case of `CC(NC(=O)C(Cc1ccc(O)cc1)NC(=O)CN)C(=O)O` (stereo not drawn) [Gly-Tyr-Ala], the LC retention time is 7.89 min.

For the molecule `NCC(=O)NC(Cc1ccc(O)cc1)C(=O)O` (centres undefined) [Gly-Tyr], the LC retention time was 8.07 min.

Consider `CC(C)C(NC(=O)CN)C(=O)O` (centres undefined) [Gly-val], for which the LC retention time was 8.05 min.

Regarding `C[N+](C)(C)CCOP(=O)([O-])OCC(O)CO` (centres undefined) [Glycerophosphocholine], the LC retention time is 8.67 min.

Regarding `NCC(=O)O` [Glycine], the LC retention time was 8.33 min.

With `COc1cc2c(=O)c(-c3ccc(O)cc3)coc2cc1O` [Glycitein], the LC retention time stood at 1.32 min.

Take `CC(C)CC(NC(=O)CN)C(=O)O` (centres undefined) [Glycyl-leucine]: the LC retention time came to 8.14 min.

As for `CC(C)CC(NC(=O)C(COC(C)(C)C)NC(=O)C(Cc1ccc(O)cc1)NC(=O)C(CO)NC(=O)C(Cc1c[nH]c2ccccc12)NC(=O)C(Cc1cnc[nH]1)NC(=O)C1CCC(=O)N1)C(=O)NC(CCCN=C(N)N)C(=O)N1CCCC1C(=O)NNC(N)=O` (centres undefined) [Goserelin], the LC retention time worked out at 7.83 min.

Consider `CN1C2CCCC1CC(NC(=O)c1nn(C)c3ccccc13)C2` (centres undefined) [Granisetron], for which the LC retention time came out at 4.12 min.

For `NC(N)=NCC(=O)O` [Guanidinoacetic acid], the LC retention time turned out to be 8.16 min.

As for `Nc1nc2nc[nH]c2c(=O)[nH]1` [Guanine], the LC retention time was found to be 6.4 min.

Turning to `Nc1nc2c(ncn2C2OC3COP(=O)(O)OC3C2O)c(=O)[nH]1` (centres undefined) [Guanosine-3',5'-cyclic monophosphate], the LC retention time was determined as 8.39 min.

On to `Nc1nc2c(ncn2C2OC(CO)C(O)C2O)c(=O)[nH]1` (centres undefined) [Guanosine], for which the LC retention time came out at 7.33 min.

Take `CC1CC2C3CC(F)C4=CC(=O)C(Cl)=CC4(C)C3(F)C(O)CC2(C)C1(O)C(=O)CO` (centres undefined) [Halometasone]: the LC retention time is 1.12 min.

Turning to `O=C(CCCN1CCC(O)(c2ccc(Cl)cc2)CC1)c1ccc(F)cc1` [Haloperidol], the LC retention time worked out at 2.31 min.

`CCCCCCCCCCCCCCCCC(=O)O` [Heptadecanoic acid]: the LC retention time turned out to be 3.01 min.

For the molecule `CCCCCC(=O)O` [Hexanoic acid], the LC retention time was 4.89 min.

On to `CCCCCC(=O)OC(CC(=O)[O-])C[N+](C)(C)C` [Hexanoyl-L-carnitine], for which the LC retention time was determined as 5.09 min.

Turning to `CC(CCCCC(=O)Nc1ccc(C(F)(F)F)cc1)NCCc1cnc[nH]1` (centres undefined) [Histamine-trifluoromethyltoluide], the LC retention time worked out at 5.3 min.
